Where a SMILES comes first, the peptide text is derived from it. The star is where a group is joined. Cbz = O=C(OCc1ccccc1)*
Columns and labels:
[1] = system: J558 myeloma cells; assay: Apoptosis of J558 myeloma cells (Annexin V staining); assay type: cell-based; conditions: for apoptosis, combination of Tm and MG-132: J558, 18 hrs, suboptimal concentrations
Method: (A) BiP and CHOP induction was examined by northern blot analysis after treating NIH3T3 or J558 myeloma cells with either MG-132 (20 μM), Tm (10 μg/ml) or both. Cells were pretreated with MG-132 for 1 hr and then further treated with Tm for 4 hrs. Ethidium bromide staining of the gel is shown at the bottom. (B) Inhibition of caspase-12 processing by proteasome inhibitors. Processing of full-length caspase-12 was examined by Western blotting in J558 myeloma cells treated with thapsigargin (1 μM) or PIs (20 μM) during the indicated time periods. (C) Alteration in the ratio of XBP-1 protein species in J558 cells were treated with increasing amounts of MG-132 for 16 hrs. Cells undergoing apoptosis were counted by Annexin V staining. (D) Time course of the XBP-1s to XBP-1u shift. Cells were treated with MG-132 (1 μM) for the indicated times and XBP-1u and spliced protein levels and cell death determined. (E) Alteration in the ratio of XBP-1 species in the MM.1s human myeloma line. Cells were treated with PS-341 (8 nM) in a time course analysis and XBP-1 protein species quantified.
(A) Synergistic effect of Tm and MG-132 on apoptosis. Annexin V positive cells were counted after treating J558 cells for 18 hrs with suboptimal concentrations of Tm and MG-132 as indicated. (B) J558-iXBP cells were generated by retroviral transduction of J558 cells with the U6 promoter based XBP-1 RNAi vector. (C) XBP-1 dependent gene expression in J558 cells that express control GFP, dn-XBP or iXBP-1 treated with Tm. Generation of dn-XBP-1 J558 cells by infection with a retrovirus containing dn-XBP cDNA inserted into the GFP-RV vector (N. N. lwakoshi et al., Nature Immunology 4, 321-329 (2003)). ERdj4, p58^IPK, BiP and CHOP gene expression were examined by Northern blot analysis. (D) Increased apoptosis in iXBP-1 and dn-XBP-1 expressing J558 cells. Cells were treated with the indicated amounts of Tm for 48 hrs and dead cells counted after Annexin V staining.
Cells were stained with annexin V-PE (BD PharMingen, San Jose, Calif.) as recommended and analyzed on a FACScan flow cytometer (Becton Dickinson, San Jose, Calif.).

[2] = system: UPR target genes; assay: UPR gene and XBP-1 protein expression in MEF cells (gene array, Northern, Western blot); assay type: cell-based, mouse; conditions: for induction of ERdj4 (XBP-1-dependent UPR target gene): XBP-1-deficient MEFs; for XBP-1u and XBP-1s protein induction: wt MEFs, 10 μM MG-132 or 10 μg/ml Tm, 6 hours
Method: (A) XBP-1 locus in wild type and XBP-1^−/− MEF cells. Splicing of the mutant XBP-1 mRNA in XBP-1^−/− cells is shown. * represent termination codons. (B) Wild type and XBP-1^−/− MEF cells were untreated or treated with 10 μg/ml Tm for 6 hours. […] (C) Wild type and XBP-1^−/− MEF cells were treated with 10 μM MG-132 or 10 μg/ml Tm for 6 hours. XBP-1u and XBP-1s proteins were detected by Western blot analysis with anti-XBP-1 antibody.
293T and MEF cells derived from wild type and XBP-1^−/− embryos were cultured in DMEM supplemented with 10% fetal calf serum (Hyclone Laboratories). MEF-tet-off cells (Clontech) were maintained in the same media with the addition of 100 μg/ml G418 and 1 μg/ml doxycycline. XBP-1s inducible cells were obtained by transfecting MEF-tet-off cells with the TREhyg-XBP-1s plasmid and then selecting in the presence of 400 μg/ml hygromycin B. Several clones were tested for doxycycline-dependent XBP-1s expression, and one was selected for further experiments. MEF-dn-XBP cells were generated by transfecting MEF-tet-off cells with the TREhyg-dn-XBP plasmid. […] ATF6α and β knockdown MEF cells were generated by cotransfecting wild type MEF cells with U6-iATF6α and β and cmv-puromycin or transducing cells with retroviruses containing each RNAi vector.
Total RNA was isolated from MEF cells with TRIZOL reagent (Invitrogen, Carlsbad, Calif.). cDNA synthesis, hybridization and laser scanning of the array were carried out at the Gene Array Technology Center (Brigham and Women's Hospital, Boston, Mass.) with MG-U74A GeneChips which had 6,000 functionally characterized sequences and 6,000 ESTs from the UniGene database (Affymetrix, Santa Clara, Calif.) as recommended by Affymetrix. Data analysis was performed using Affymetrix GeneChip 3.1 software under default parameter setting.
Total RNA was prepared by using Trizol reagent, electrophoresed on 1.2% agarose, 6% formaldehyde gels and then transferred onto Genescreen Plus membrane (NEN). ^32P-radiolabeled probes were prepared with the RediPrime II labeling system (Amersham-Pharmacia). Template DNAs for the probes were cut out by using appropriate restriction enzymes from the cDNA-containing plasmid (XBP-1, 15-830 of the murine coding region) or EST clones from ATCC (CHOP, IMAGE:5863055; ERdj4, IMAGE: 1920927; p58^IPK probe A, IMAGE:9001935; p58^IPK probe B, IMAGE:2646147; ATF6α, IMAGE:4503659; MGP, IMAGE:4990627; EDEM, IMAGE:5324660; PDI-P5, IMAGE:2645183; RAMP4, IMAGE:3489738). Grp94 and Grp78 probes were kindly provided by R. J. Kaufman, Univ. of Michigan and the HEDJ probe the kind gift of L. Hendershot, St. Jude Children's Research Hospital, Memphis. Probe hybridization was performed with Ultrahyb buffer as recommended by the manufacturer (Ambion).
48 hours after transfection, 293T cells were washed twice with cold PBS and lysed in 1 ml lysis buffer (10 mM Tris pH7.4, 150 mM NaCl, 1% Triton X-100, 1 mM EDTA) containing a protease inhibitor cocktail tablet (Roche). Lysates were precleared by using protein A-agarose beads (Roche) for 1 hour and incubated with agarose conjugated anti-HA antibody (Santa Cruz) for overnight. The agarose beads were washed five times with the lysis buffer and resuspended in SDS-PAGE sample buffer. MEF cells were lysed in RIPA buffer (50 mM Tris pH 7.4, 150 mM NaCl, 1 mM EDTA, 1% Triton X-100, 1% sodium deoxycholate, 0.1% SDS). Lysates and immunoprecipitates were subjected to SDS-PAGE and transferred to Hybond P membrane (Amersham-Pharmacia).

| Molecule | apoptosis, combination of Tm and MG-132 [1] | apoptosis in J558 cells ([1]; agent alone) | induction of ERdj4 (XBP-1-dependent UPR target gene) [2] | XBP-1u and XBP-1s protein induction [2] | genes whose expression increased, of the total pool of 12,000 genes ([2]; wt MEF cells, Tm 6 hours) | apoptosis upon Tm treatment compared to control GFP-transduced cells ([1]; transduced J558 cells, Tm 48 hrs) | cell proliferation or viability at baseline ([1]; transduced J558 cells, no Tm) |
| --- | --- | --- | --- | --- | --- | --- | --- |
| CC(C)C[C@@H](C=O)NC(=O)[C@H](CC(C)C)NC(=O)[C@H](CC(C)C)NC(=O)OCc1ccccc1 [MG-132] (Cbz-Leu-Leu-Leu-aldehyde) | synergistically induced apoptosis | induced apoptosis in J558 cells | normal induction of ERdj4 | induced both XBP-1u and XBP-1s proteins | – | – | – |
| tunicamycin [Tm] | synergistically induced apoptosis | – | not induced at all | induced both XBP-1u and XBP-1s proteins | 2.8% | – | – |
| dn-XBP: dominant negative XBP-1 containing the N-terminal 188 aa, lacking transactivation domain, retaining leucine zipper (protein) MVVVAAAPSAATAAPKVLLLSGQPASGGRALPLMVPGPRAAGSEASGTPQARKRQRLTHLSPEEKALRRKLKNRVAAQTARDRKKARMSELEQQVVDLEEENHKLQLENQLLREKTHGLVVENQELRTRLGMDTLDPDEVPEVEAKGSGVRLVAGSAESAAGAGPVVTSPEHLPMDSDTVASSDSESD | – | – | – | – | – | significantly increased apoptosis | No effect on cell proliferation or viability |
